From patent US20130261133A1, “Therapeutic Compounds for Protozoal and Microbial Infections and Cancer” (THE UNIVERSITY OF MONTANA, priority 2012, published 2013)
“And” between values parts separate entries of the source, which are not always exact repeats. Equal entries are not always repeated.

What was measured:
Leishmania donovani = test: Antileishmanial assay, Leishmania in infected macrophages (L. donovani); settings: Leishmania donovani, Macrophage, read-out: IC50 Leishmania in infected macrophages
[1] = tested on: P. falciparum clone W2/Indochina; test: In vitro malaria assay, [3H]-hypoxanthine incorporation; type: cell-based; settings: Plasmodium falciparum, W2, 72 h, read-out: IC50 Plasmodium
Protocol: a. In vitro Parasite Culturing: P. falciparum clone W2/Indochina was grown in continuous culture using RPMI 1640 media containing 10% heat-inactivated type A+ human plasma, sodium bicarbonate (2.4 g/L), HEPES (5.94 g/L) and 4% washed human type A+ erythrocytes. Cultures were gassed with a 90% N2, 5% O2 and 5% CO2 mixture followed by incubation at 37° C. b. Assay Preparation: Test compounds at 5 mg/mL in DMSO were diluted 1:500 and then serially diluted in duplicate over 11 concentrations. P. falciparum cultures with >70% ring stage parasites were diluted to 0.5-0.7% parasitemia and 1.5% hematocrit in RPMI 1640 media. In 96-well plates a volume of 90 μl/well of parasitized erythrocytes was added on top of 10 μL/well of the test compound. A separate plate containing chloroquine, dihydroartemisinin and atovaquone was added to each set of assay plates as control drugs. A Beckman Coulter Biomek 3000 was used to dispense test compounds, control drugs and parasitized erythrocytes into the microtiter plates. Positive and negative controls were included in each plate. Positive controls consisted of parasitized erythrocytes and negative controls consisted of non-parasitized erythrocytes at 1.5% hematocrit in RPMI 1640 media. Assay plates were placed into a modulator incubator chamber and equilibrated with 90% N2, 5% O2 and 5% CO2 mixture then incubated at 37° C. for 48 hours. After 48 hours, approximately 0.05 μCi of [^3H]-hypoxanthine monohydrochloride was added to each well of the assay plates. Plates were put back into the modulator incubation chamber, gassed with the 90% N2, 5% O2 and 5% CO2 mixture then incubated at 37° C. for an additional 24 hours. After 72 hours total incubation time the plates were frozen at −80° C. until later processed for parasite growth determinations. c. Assay Plate Processing: Assay plates were harvested using a Perkin Elmer FilterMate Harvester. The incorporation of [^3H]-hypoxanthine into nucleic acid was measured using a Perkin Elmer Topcount NXT Microplate Scintillation & Luminescence Counter. d. Data Analysis: Data analysis was performed using a custom database manager (Dataspects, Inc). Nonlinear regression analysis was used to calculate EC50.

Leishmania amazonensis = test: Antileishmanial assay, Leishmania in infected macrophages (L. amazonensis); settings: Leishmania amazonensis
[2] = tested on: leishmaniasis (LV82 PM infection), liver parasitemia; test: In vivo efficacy: liver parasitemia in BALB/c mice with leishmaniasis; settings: 10 mg/kg i.p.
Protocol: The following protocols were used to prepare the various treatments described in Table 2: • a. Miltefosine ([…] stock solution in sterile PBS): 7.5 mg miltefosine was weighed and put in a eppendorf tube, then 0.75 mL of sterile PBS was added. After vortexing, a clear solution was formed. Make 1 mg/mL solution daily by diluting 100 μL of 10 mg/mL miltefosine solution in 900 μL sterile PBS. • b. Vehicle control: 5% (v/v) DMSO, 50% (v/v) PEG 400, 10% (v/v) Ethanol, and 35% (v/v) distilled water. • c. Compound 47 (2 mg/mL solution of compound 47 in PEG 400/Ethanol vehicle): […]. Dilute the above solution 1:20 with PEG 400/EtOH/water daily. After vortexing and warming up at 37° C. for 30 min., a clear solution formed. • d. Compound 48 (2 mg/mL solution of compound 48 in PEG 400/Ethanol vehicle): 6.8 mg of compound 48 was dissolved in 0.17 mL of DMSO to make a 40 mg/mL stock solution. After vortexing, a yellowish-brown solution was formed. Diluted the above solution 1:20 with PEG 400/EtOH/water daily. After vortexing a clear solution formed. • e. Compound 50 (2 mg/mL solution of compound 50 in PEG 400/Ethanol vehicle): 8.4 mg of compound 50 was dissolved in 0.21 mL of DMSO to make a 40 mg/mL stock solution. After vortexing, a dark yellowish-brown solution was formed. Diluted the above solution 1:20 with PEG 400/EtOH/water. After vortexing a clear solution formed.
(§1) Compounds 47, 48, and 50 were then evaluated in animal studies with BALB/c mice with leishmaniasis. Compounds were delivered via i.p. injection at 10 mg/kg, with untreated, vehicle, and miltefosine controls as described in Table 2. […] Miltefosine, the only oral treatment currently available to treat leishmaniasis in humans, was also evaluated in the BALB/c mice for comparison purposes.

[3] = Body and organ weights of infected, treated BALB/c mice; type: in vivo
Protocol: as §1

Compound	IC50 (Leishmania donovani)	further results
C=C[C@@H](C#CC#CC(CCCCCCCCC)NC(=O)c1ccc(Cl)cc1)OC(C)=O (stereo in doubt) [Compound 39, (3S,8R)-8-(4-chlorobenzamido)heptadeca-1-en-4,6-diyn-3-yl acetate]	112 nM	
C=C[C@@H](C#CC#CC(CCCCCCCCC)NC(=O)c1ccc(Cl)c(Cl)c1)OC(C)=O (stereo in doubt) [Compound 40, (3S,8R)-8-(3,4-dichlorobenzamido)heptadeca-1-en-4,6-diyn-3-yl acetate]	428 nM	
C=C[C@@H](C#CC#CC(CCCCCCCCC)NC(=O)c1ccc(C)cc1)OC(C)=O (stereo in doubt) [Compound 41, (3S,8R)-8-(4-methylbenzamido)heptadeca-1-en-4,6-diyn-3-yl acetate]	126 nM	
C=C[C@@H](C#CC#CC(CCCCCCCCC)NC(=O)c1ccc(OC)cc1)OC(C)=O (stereo in doubt) [Compound 42, (3S,8R)-8-(4-methoxybenzamido)heptadeca-1-en-4,6-diyn-3-yl acetate]	165 nM	
C=C[C@H](C#CC#C[C@H](O)CCCCCCCCC)OC(C)=O [Compound 2, (3R,8R)-8-hydroxyheptadeca-1-en-4,6-diyn-3-yl acetate]		IC50 [1]: 8.07 µg/mL; anti-Leishmanial activity at 10 μM (Leishmania amazonensis; 10 μM): no anti-Leishmanial activity; IC50 (Leishmania amazonensis; Macrophage, read-out: IC50 Leishmania in infected macrophages): > 10 µM
C=C[C@H](O)C#CC#C[C@@H](CCCCCCCCC)NCCCC [Compound 55, (3S,8R)-8-(butylamino)heptadeca-1-en-4,6-diyn-3-ol]	3 nM	
C=C[C@H](O)C#CC#C[C@@H](CCCCCCCCC)NC(=O)c1ccccc1 [Compound 56, N-((3S,8R)-3-hydroxyheptadeca-1-en-4,6-diyn-8-yl)benzamide]	5 nM	
C=C[C@H](O)C#CC#C[C@@H](CCCCCCCCC)NC(=O)OCC [Compound 57, ethyl((3S,8R)-3-hydroxyheptadeca-1-en-4,6-diyn-8-yl)carbamate]	10 nM	
C=C[C@H](O)C#CC#C[C@@H](CCCCCCCCC)OC [Compound 58, (3S,8R)-8-methoxyheptadeca-1-en-4,6-diyn-3-ol]	11 nM	
C=C[C@H](O)C#CC#C[C@@H](CCCCCCCCC)NC(C)=O [Compound 59, N-((3S,8R)-3-hydroxyheptadeca-1-en-4,6-diyn-8-yl)acetamide]	18 nM	
C=C[C@@H](C#CC#C[C@@H](CCCCCCCCC)NC(=O)c1cc(C)on1)OC(C)=O [Compound 61, (3S,8R)-8-(5-methylisoxazole-3-carboxamido)heptadeca-1-en-4,6-diyn-3-yl acetate]	77 nM	
C=C[C@@H](C#CC#C[C@@H](CCCCCCCCC)NC(=O)c1ccccn1)OC(C)=O [Compound 62, (3S,8R)-8-(picolinamido)heptadeca-1-en-4,6-diyn-3-yl acetate]	89 nM	
C=C[C@@H](C#CC#C[C@@H](CCCCCCCCC)NC(=O)c1cnccn1)OC(C)=O [Compound 63, (3S,8R)-8-(pyrazine-2-carboxamido)heptadeca-1-en-4,6-diyn-3-yl acetate]	42 nM	
C=C[C@@H](C#CC#C[C@@H](CCCCCCCCC)NC(=O)c1ccccc1Cl)OC(C)=O [Compound 64, (3S,8R)-8-(2-chlorobenzamido)heptadeca-1-en-4,6-diyn-3-yl acetate]	109 nM	
C=C[C@@H](C#CC#C[C@@H](CCCCCCCCC)NC(=O)c1cccc(Br)c1)OC(C)=O [Compound 65, (3S,8R)-8-(3-bromobenzamido)heptadeca-1-en-4,6-diyn-3-yl acetate]	184 nM	
C=C[C@@H](C#CC#C[C@@H](CCCCCCCCC)NC(=O)c1cccc(C)c1)OC(C)=O [Compound 66, (3S,8R)-8-(3-methylbenzamido)heptadeca-1-en-4,6-diyn-3-yl acetate]	120 nM	
C=C[C@@H](C#CC#C[C@@H](CCCCCCCCC)NC(=O)c1ccc(F)cc1)OC(C)=O [Compound 67, (3S,8R)-8-(4-fluorobenzamido)heptadeca-1-en-4,6-diyn-3-yl acetate]	72 nM	
C=C[C@@H](C#CC#C[C@@H](CCCCCCCCC)NC(=O)c1cccc(C(F)(F)F)c1)OC(C)=O [Compound 68, (3S,8R)-8-(3-(trifluoromethyl)benzamido)heptadeca-1-en-4,6-diyn-3-yl acetate]	191 nM	
C=C[C@@H](C#CC#C[C@@H](CCCCCCCCC)NC(=O)c1ccco1)OC(C)=O [Compound 69, (3S,8R)-8-(furan-2-carboxamido)heptadeca-1-en-4,6-diyn-3-yl acetate]	50 nM	
C=C[C@@H](C#CC#C[C@@H](CCCCCCCCC)NC(=O)c1cc(Cl)cc(Cl)c1)OC(C)=O [Compound 70, (3S,8R)-8-(3,5-dichlorobenzamido)heptadeca-1-en-4,6-diyn-3-yl acetate]	252 nM	
C=C[C@@H](C#CC#C[C@@H](CCCCCCCCC)N=C=S)OC(C)=O [Compound 71, (3S,8R)-8-isothiocyanatoheptadeca-1-en-4,6-diyn-3-yl acetate]	21600 nM	
C=C[C@@H](C#CC#C[C@@H](CCCCCCCCC)NC(=O)CCCOCc1ccccc1)OC(C)=O [Compound 72, (3S,8R)-8-(4-(benzyloxy)butanamido)heptadeca-1-en-4,6-diyn-3-yl acetate]	529 nM	
CCCCCCCCC[C@H](C#CC#C[C@@H](O)C1CC1)NCCCC [Compound 74, (1S,6R)-6-(butylamino)-1-cyclopropylpentadeca-2,4-diyn-1-ol]	722 nM	
C/C=C/[C@H](O)C#CC#C[C@@H](CCCCCCCCC)NCCCC [Compound 75, (4S,9R,E)-9-(butylamino)octadeca-2-en-5,7-diyn-4-ol]	31 nM	
CCCCCCCCC[C@H](C#CC#C[C@@H](O)c1ccccc1)NCCCC [Compound 76, (1S,6R)-6-(butylamino)-1-phenylpentadeca-2,4-diyn-1-ol]	113 nM	
CCCCCCCCC[C@H](C#CC#C[C@@H](O)c1ccc(OCC)cc1)NCCCC [Compound 77, (1S,6R)-6-(butylamino)-1-(4-ethoxyphenyl)pentadeca-2,4-diyn-1-ol]	443 nM	
C=C[C@H](O)C#CC#C[C@@H](CCCCCCCCC)NCC [Compound 78, (3S,8R)-8-(ethylamino)heptadeca-1-en-4,6-diyn-3-ol]	30 nM	
C=C[C@@H](C#CC#C[C@@H](CCCC1CCCCC1)NC(=O)c1ccccc1)OC(C)=O [Compound 79, (3S,8R)-8-benzamido-11-cyclohexylundeca-1-en-4,6-diyn-3-yl acetate]	27 nM	
CCCCCCCCCCCCCCCCOP(=O)([O-])OCC[N+](C)(C)C [Miltefosine, reference compound]		LDU mean ± SD ([2]; group mean, n=4): 87.0; % Reduction (Average) in liver parasitemia ([2]; infected BALB/c mice): 98% and 97.8%; # of amastigotes per 200 nuclei ([2]; liver, individual mice): 22 and 13 and 8 and 24; LDU ([2]; total liver parasitemia, individual mice): 109.6 and 67.7 and 35.9 and 134.9; Body weight ([3]; 10 mg/kg i.p., individual mice, Table 4): 18.3 g and 18.0 g and 17.1 g and 20.0 g; Mean body weight of mice Post-treatment ([3]; post-treatment, 10 mg/kg i.p., group mean): 18.4 g; Mean body weight of mice Pre-treatment ([3]; pre-treatment (baseline), group mean): 18.4 g
